Columns and labels:
[1] = Cytotoxicity against rat NRK 52E cells after 5 days; assay type: cell-based; details: read-out: LC50
[2] = Cytotoxicity against rat K-ras transformed NRK K/1 cells after 5 days; assay type: cell-based; details: NRK K/1, 120 h, read-out: LC50 (the source's name)
[3] = Cytotoxicity against mouse 3LL cells after 5 days; assay type: cell-based; details: 120 h, read-out: LC50 (the source's name)
[4] = Cytotoxicity against rat H-ras transformed NRK H/1.2 cells after 5 days; assay type: cell-based; details: NRK H/1.2, 120 h, read-out: LC50 (the source's name)
[5] = Differential index, LC50 for rat NRK 52E cells to LC50 for rat H-ras transformed NRK H/1.2 cells; assay type: ADME, cell-based; details: NRK 52E cells versus H-ras transformed NRK H/1.2 cells
[6] = Differential index, LC50 for rat NRK 52E cells to LC50 for rat K-ras transformed NRK K/1 cells; assay type: ADME, cell-based; details: NRK 52E cells versus K-ras transformed NRK K/1 cells
[7] = Differential index, LC50 for rat NRK 52E cells to LC50 for rat N-ras transformed NRK N/4.2 cells; assay type: ADME, cell-based; details: NRK 52E cells versus N-ras transformed NRK N/4.2 cells
[8] = Cytotoxicity against rat N-ras transformed NRK N/4.2 cells after 5 days; assay type: cell-based; details: NRK N/4.2, 120 h, read-out: LC50 (the source's name)
[9] = Differential index, LC50 for rat NRK 52E cells to LC50 for mouse 3LL cells; assay type: ADME, cell-based; details: NRK 52E cells versus 3LL cells

SMILES	CC50 at 120 h [1]	CC50 [2]	CC50 [3]	CC50 [4]	selectivity ratio [5]	selectivity ratio [6]	selectivity ratio [7]	CC50 [8]	selectivity ratio [9]
Cc1ccc2c(n1)C(=O)C(NCCCCO)=CC2=O	10500 nM	13500 nM	3800 nM	10500 nM	–	–	–	–	–
COC(=O)c1cc2c([nH]c3ccccc32)c(-c2ccc3c(n2)C(=O)C(NC(=O)C(C)C)=CC3=O)n1	700 nM	500 nM	1300 nM	660 nM	1.1	1.4	1.1	640 nM	0.5
Cc1ccc2c(n1)C(=O)C(NC(=O)C(C)C)=CC2=O	1500 nM	7500 nM	710 nM	1450 nM	–	–	–	1150 nM	–
CC(=O)NC1=CC(=O)c2ccc(-c3nc(C(=O)OCCN(C)C)cc4c3[nH]c3ccccc34)nc2C1=O	370 nM	140 nM	500 nM	240 nM	1.5	2.6	1.3	290 nM	0.7
CCOC(=O)c1cc2c([nH]c3ccccc32)c(-c2ccc3c(n2)C(=O)C(NC(C)=O)=CC3=O)n1	300 nM	40 nM	3200 nM	360 nM	0.8	7.5	0.7	200 nM	0.1
CCCCOC(=O)c1cc2c([nH]c3ccc(OC)cc32)c(-c2ccc3c(n2)C(=O)C(NC(C)=O)=CC3=O)n1	2500 nM	2200 nM	> 3300 nM	2100 nM	1.2	1.1	1.1	2200 nM	< 0.7
CC(=O)NC1=CC(=O)c2ccc(-c3nc(C(=O)OCCN(C)C)c(C)c4c3[nH]c3ccccc34)nc2C1=O	90 nM	60 nM	480 nM	90 nM	1	1.5	1	90 nM	0.2
COC1=CC(=O)c2ccc(C)nc2C1=O	6900 nM	11800 nM	7400 nM	4200 nM	–	–	–	–	–
Cc1ccc2c(n1)C(=O)C(NC(=O)CCl)=CC2=O	3200 nM	6600 nM	2300 nM	2800 nM	–	–	–	3400 nM	–
CCCC(=O)NC1=CC(=O)c2ccc(-c3nc(C(=O)OC)c(C)c4c3[nH]c3ccccc34)nc2C1=O	320 nM	330 nM	820 nM	400 nM	0.8	1	0.8	420 nM	0.4
CC(=O)NC1=CC(=O)c2ccc(-c3nc(C(=O)OC4CCCCC4)cc4c3[nH]c3ccccc34)nc2C1=O	700 nM	400 nM	1000 nM	690 nM	1	1.7	1	700 nM	0.7
CCCCOC(=O)c1cc2c([nH]c3ccc(F)cc32)c(-c2ccc3c(n2)C(=O)C(NC(C)=O)=CC3=O)n1	620 nM	330 nM	2100 nM	700 nM	0.9	1.9	0.8	840 nM	0.3
O=Cc1ccc2c(n1)C(=O)C(NC(=O)CCl)=CC2=O	3600 nM	5800 nM	2100 nM	3400 nM	–	–	–	3200 nM	–
CCCCOC(=O)c1cc2c([nH]c3ccccc32)c(-c2ccc3c(n2)C(=O)C(NC(=O)CCl)=CC3=O)n1	960 nM	520 nM	2300 nM	740 nM	1.3	1.8	0.9	1050 nM	0.4
COC(=O)c1nc(-c2ccc3c(n2)C(=O)C(NC(=O)CCl)=CC3=O)c2[nH]c3ccccc3c2c1C	580 nM	790 nM	2000 nM	580 nM	1	0.7	0.8	700 nM	0.3
CC(C)C(=O)NC1=CC(=O)c2ccc(C=O)nc2C1=O	> 3300 nM	2150 nM	1000 nM	> 3300 nM	–	–	–	> 3300 nM	–
CC(=O)NC1=CC(=O)c2nc(C)ccc2C1=O	21500 nM	> 33000 nM	> 33000 nM	20000 nM	–	–	–	–	–

SMILES	CC50 at 120 h [1]	CC50 [2]	CC50 [3]	CC50 [4]	selectivity ratio [5]	selectivity ratio [6]	selectivity ratio [7]	CC50 [8]	selectivity ratio [9]
CC(=O)NC1=CC(=O)c2ccc(-c3[nH]c(C(=O)O)cc4c5ccccc5nc3-4)nc2C1=O	150 nM	70 nM	400 nM	110 nM	1.4	2.1	1.5	100 nM	0.4
CC(=O)NC1=CC(=O)c2ccc(C(=O)O)nc2C1=O	> 33000 nM	> 33000 nM	26000 nM	> 31000 nM	–	–	–	–	–
Cc1ccc2c(n1)C(=O)C(N)=CC2=O	800 nM	1300 nM	800 nM	600 nM	–	–	–	–	–
CC(=O)NC1=CC(=O)c2ccc(-c3[nH]c(CO)cc4c5ccccc5nc3-4)nc2C1=O	250 nM	200 nM	440 nM	200 nM	1.2	1.2	1.1	220 nM	0.6
COC(=O)c1cc2c([nH]c3ccccc32)c(-c2ccc3c(n2)C(=O)C(NC(C)=O)=CC3=O)n1	500 nM	110 nM	840 nM	510 nM	1	4.5	1	520 nM	0.6
NC1=CC(=O)c2ccc(C=O)nc2C1=O	2400 nM	4300 nM	2300 nM	2200 nM	–	–	–	–	–
CCCCOC(=O)c1cc2c([nH]c3ccccc32)c(-c2ccc3c(n2)C(=O)C(NC(=O)C(C)C)=CC3=O)n1	900 nM	400 nM	900 nM	610 nM	1.5	2.3	1.8	500 nM	1
CCCC(=O)NC1=CC(=O)c2ccc(-c3nc(C(=O)OCCC(C)C)cc4c3[nH]c3ccccc34)nc2C1=O	1000 nM	600 nM	2400 nM	370 nM	2.7	1.6	1.5	650 nM	0.4
CC(=O)NC1=CC(=O)c2ccc(-c3nc(C(=O)OCc4ccccc4)cc4c3[nH]c3ccccc34)nc2C1=O	9500 nM	9500 nM	> 33000 nM	> 10000 nM	< 0.9	1	< 0.3	> 33000 nM	< 0.3
CCCCCCCCOC(=O)c1cc2c([nH]c3ccccc32)c(-c2ccc3c(n2)C(=O)C(NC(=O)CCl)=CC3=O)n1	> 33000 nM	15000 nM	> 33000 nM	> 33000 nM	–	> 2.2	1	> 33000 nM	–
CC(=O)NC1=CC(=O)c2ccc(C=O)nc2C1=O	1300 nM	2600 nM	1200 nM	2500 nM	–	–	–	–	–
CC(C)CCOC(=O)c1cc2c([nH]c3ccccc32)c(-c2ccc3c(n2)C(=O)C(NC(=O)CCl)=CC3=O)n1	1350 nM	560 nM	3200 nM	1320 nM	1	2.4	1.1	1200 nM	0.4
CC(=O)NC1=CC(=O)c2cc(C)cnc2C1=O	1300 nM	1800 nM	1000 nM	1100 nM	–	–	–	–	–
CC(=O)NC1=CC(=O)c2ccc(-c3[nH]ccc4c5ccccc5nc3-4)nc2C1=O	400 nM	440 nM	3000 nM	400 nM	1	0.9	0.8	490 nM	0.1
CCCCOC(=O)c1cc2c([nH]c3ccccc32)c(-c2ccc3c(n2)C(=O)C(NC(=O)CCC)=CC3=O)n1 [LAV12]	660 nM	500 nM	2300 nM	400 nM	1.6	1.3	0.9	700 nM	0.3
CCCC(=O)NC1=CC(=O)c2ccc(-c3nc(C(=O)OC)cc4c3[nH]c3ccccc34)nc2C1=O	700 nM	500 nM	1300 nM	660 nM	1.1	1.4	1.1	640 nM	0.5

Source: ChEMBL document CHEMBL1144487 (Bioorg Med Chem, 2007)
